Key:
[1] = system: mice; format: in vivo; conditions: oral administration of 2 g/kg
Excerpt: Theanine, formulated in the theanine-containing composition of the present invention, is a glutamic acid derivative contained in tea-leaves, which is the main component of deliciousness (umami) of tea. It is also used as a food additive for seasoning. […] As described above, the theanine is an extremely safe substance.

[2] = system: male and female subjects; assay: Test Example 4: anxiety group after coffee extract beverage containing L-theanine; format: in vivo, humans; conditions: 10 times per day for one month, 7 subjects
Protocol: Each of male and female subjects consisting of a total of 7 members was given a beverage prepared by dissolving the L-theanine obtained in Examples 1 and 2 at amounts of 0 mg, 60 mg, 300 mg or 1200 mg in 100 g of coffee extract in boiling water (equivalent to about 1 mg/kg, about 5 mg/kg, and about […], respectively) 10 times per day for one month.

[3] = system: women complaining of premenstrual syndrome symptoms; assay: Test Example 5: premenstrual syndrome questionnaire, powdered L-theanine; format: in vivo, humans; conditions: 20 women, 50 mg powdered L-theanine per day during corpus lutea stage
Protocol: A test for assessing the premenstrual syndrome-suppressive effect of the inventive product was performed in 20 women complaining of 5 or more premenstrual syndrome symptoms. The inventive product used herein was powdered L-theanine as prepared in Example 1. Each subject was requested to measure their basal body temperature upon awaking for 2 months. […] During the test period, physical symptoms, mental symptoms and social symptoms were recorded in detail everyday. On the first day of the third menstruation, the test was terminated and a questionnaire survey was conducted. Questionnaire Survey Concerning Premenstrual Syndrome of Test Example 5 1. Were PMS symptoms suppressed ? 1) having remarkable effects; 2) having some effects; 3) having slight effects; 4) none. 2. For those selected 1), 2) or 3) in 1., were there any improvements in the daily life ? […] 3. For those selected 1), 2) or 3) in 1., please give specifics: […]

[4] = system: ICR male mice; assay: Example 11: amount of spontaneous exercise, rotatable cage; format: in vivo; conditions: oral 10 ml of 1% by weight aqueous solution per 1 kg body weight, versus non-administered group
Protocol: Ten ICR male mice were each orally administered with 10 ml of a 1% by weight theanine aqueous solution, per 1 kg of body weight, and the mice were allowed to stand in an inhalation box. The administered group of mice were compared with the 10 non-administered group of mice, wherein the amount of excercise was evaluated by counting the number of rotations of the rotatable cage for 60 minutes.

[5] = Theanine content 60 mg in 100 g coffee extract
[6] = Theanine content 300 mg in 100 g coffee extract
[7] = Theanine content 1200 mg in 100 g coffee extract

CCNC(=O)CC[C@H](N)C(=O)O [L-theanine]
dead cases in acute toxicity test [1]: no dead cases | High-Anxiety Group (number of subjects) [2, 5]: 2 | Low-Anxiety Group (number of subjects) [2, 5]: 2 | Moderate-Anxiety Group (number of subjects) [2, 5]: 3 | High-Anxiety Group (number of subjects) [2, 6]: 0 | Low-Anxiety Group (number of subjects) [2, 6]: 0 | Moderate-Anxiety Group (number of subjects) [2, 6]: 1 | High-Anxiety Group (number of subjects) [2, 7]: 0 | Low-Anxiety Group (number of subjects) [2, 7]: 7 | Moderate-Anxiety Group (number of subjects) [2, 7]: 0 | Were PMS symptoms suppressed? 4) none [3]: 0 subjects (0%). | amount of exercise (number of rotations of the rotatable cage for 60 minutes) [4]: significant decrease

Reference: patent US6589566B2, “Composition comprising theanine” (priority 1998, dated 2003)
